Experimental data: article PMC6627058, “Slow-Binding Inhibition of Tyrosinase by Ecklonia cava Phlorotannins” (Marine Drugs, 2019)
“And” between values parts separate entries of the source, which are not always exact repeats. Equal entries are not always repeated. Where two headings read alike, the source gives them in different places.

What was measured:
tyrosinase [1] = target: T1, tyrosinase (Agaricus bisporus, UniProt C7FF04); assay: Tyrosinase assay (L-tyrosine substrate, product detected at 475 nm); type: biochemical, mushroom; details: for Binding mode: Lineweaver–Burk and Dixon plots; for Ki: based on Dixon plots; for inhibition at 100 µM: read-out: Inhibitory activity on tyrosinase at 100 μM (%)
T1 construct: purchased Sigma-Aldrich T3824
T1 sequence (C7FF04 1-392 limits assumed): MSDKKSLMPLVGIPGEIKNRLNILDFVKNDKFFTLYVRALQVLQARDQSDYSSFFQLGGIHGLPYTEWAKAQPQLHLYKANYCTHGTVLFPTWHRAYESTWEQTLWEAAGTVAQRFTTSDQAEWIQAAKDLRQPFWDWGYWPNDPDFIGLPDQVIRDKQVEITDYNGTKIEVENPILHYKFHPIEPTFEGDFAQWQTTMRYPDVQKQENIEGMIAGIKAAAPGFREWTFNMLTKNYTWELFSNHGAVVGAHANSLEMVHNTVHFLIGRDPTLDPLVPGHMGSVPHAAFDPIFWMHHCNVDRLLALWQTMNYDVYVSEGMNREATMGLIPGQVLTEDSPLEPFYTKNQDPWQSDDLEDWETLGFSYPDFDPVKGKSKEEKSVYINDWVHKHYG
Method: Phlorotannins of E. cava and E. stolonifera were reported to have the inhibitory activity on mushroom tyrosinase. […] This study evaluated the ability of the isolated phlorotannins 1–7 to suppress the catalytic reaction of tyrosinase over time, in the absence or presence of inhibitor. […]. A commercial tyrosinase inhibitor was used as a positive control (kojic acid; […]. To identify potent inhibitors, the inhibitory activity of all of the isolated compounds at 100 μM was tested against tyrosinase in vitro (Table 1). Of these, compounds 2–5 were confirmed to have inhibitory activity exceeding 50%. Serial dilutions were used to calculate the IC50 values. The tyrosinase inhibitory activity increased in a dose-dependent fashion (Figure 2A). […]. To gain insight into the interaction of the enzyme with phlorotannins, as tyrosinase inhibitors, the products of the catalytic reaction were determined by ultraviolet-visible photometry after the inhibitor was added to the enzyme solution. The IC50 values of compounds 3 and 5 increased linearly with [S]/Km (Figure 2B). […]. Phlorotannins from seaweeds have been used to develop the non-competitive tyrosinase inhibitors 7-phloroeckol, dieckol, and phlorofucofuroeckol A, and the competitive inhibitors phloroglucinol and eckstolonol.
To evaluate inhibitory activity on tyrosinase with isolated compounds, 130 μL of tyrosinase in […] phosphate buffer (pH 6.8) was divided in 96 well plates. 20 μL of compound concentrations ranging from 1–0.015 mM was added. 50 μL of 1.5 mM L-tyrosine in phosphate buffer was diluted into the mixture for calculating the inhibitory activity. 50 μL of 10–0.62 mM L-tyrosine in buffer was added to analyze initial velocity (v0). After starting their reaction for 20 min, an amount of the product was detected at UV–vis 475 nm. […]

tyrosinase [2] = target: T1, tyrosinase; assay: Slow-binding inhibition analysis (progress curves); type: biochemical, mushroom; details: for Ki: apparent Ki from slow-binding analysis, read-out: kapp i; for Slow-binding mechanism: replot of kobs vs [I]
Method: To confirm time-dependent inhibition by the potential inhibitors (compounds 3 and 5), the substrate was added into a mixture of ligand (3.1 μM) that was preincubated with tyrosinase. Over time, their inhibitory activities increased. To calculate the slow-binding parameters (k3, k4, k5, k6, and kapp i), the progress curves were analyzed using equation (2), with increasing concentrations of compounds 3 and 5 (Figure 3C,D); a replot of kobs was obtained as [I] (Figure 3E,F). The replot of compound 3 was a straight line that fit equation (3). […] The two strongest inhibitors had different slow-binding mechanisms. Inhibitor 5, which has a higher molecular weight, induced a new conformational state of the enzyme.
The progress curves were calculated to Equation (2) by Morrison according to time course for 420 s. [P] = vst + [(v0 − vs)/kobs(1 − e^−kobst)](2) where t is time, [P] is product intensity, v0 and vs are the initial and steady-state reaction velocities, and kobs is the apparent first-order rate […]. kobs = k4 + k3[I](3) (4) Kiapp=k4/k3
This is a linear Equation (3) for slow-binding mechanism A. Kiapp is the apparent value of an inhibitor by Equation (4). Where [I] is inhibitor concentration. (5) kobs=k6+[(k5×[I])/(Kiapp+[I])
Equation (5) of hyperbola is for the calculation of rate constant in slow-binding mechanism B.

tyrosinase [3] = target: T1, tyrosinase; details: cited from earlier work; for Mode of tyrosinase inhibition (literature): phlorotannins from seaweeds

For `Oc1cc(O)cc(Oc2c(Oc3c(O)cc(O)cc3O)cc(O)c3c2Oc2c(O)cc(O)cc2O3)c1` [Compound 3, 2-phloroeckol], the Binding mode (tyrosinase [1]) was “Competitive”, the Ki (tyrosinase [1]) was 8.2 µM and the inhibition at 100 µM (tyrosinase [1]; compound at 100 μM, triplicate) was 94.7 ± 1.4%. For the same compound, the IC50 (tyrosinase [1]; triplicate, read-out: IC50) was < 10 µM and 7 µM, the Ki (tyrosinase [2]) was 6.5 µM and the Slow-binding mechanism (tyrosinase [2]) was “a single-step binding mechanism”. The K3 (tyrosinase [2]; slow-binding mechanism A) was 0.0002 mM/s and the k4 (tyrosinase [2]; slow-binding mechanism A) was 0.0013 s⁻¹.

For triphlorethol A [Compound 1], the “Inhibitory activity on tyrosinase at 100 μM (%)” value (tyrosinase [1]; compound at 100 μM, triplicate) was 26.7 ± 1.0%.

For `Oc1cc(O)cc(Oc2c(O)cc(O)c3c2Oc2c(O)cc(O)cc2O3)c1` [Compound 2, eckol], the IC50 (tyrosinase [1]; IC50, triplicate) is given as 13.5 ± 0.1 µM, the inhibition at 100 µM (tyrosinase [1]; compound at 100 μM, triplicate) is given as 86 ± 4.7% and the “Binding mode (reported)” value (tyrosinase [3]) is given as “Reported as non-competitive ^d”.

In the case of `Oc1cc(O)cc(Oc2c(O)cc(O)c3c2Oc2c(O)cc(Oc4c(O)cc(Oc5c(O)cc(O)c6c5Oc5c(O)cc(O)cc5O6)cc4O)cc2O3)c1` [dieckol], the “Mode of tyrosinase inhibition (literature)” value (“Mode of tyrosinase inhibition” for short) (tyrosinase [3]) is listed as “non-competitive”.

For `Oc1cc(O)cc(Oc2c(O)cc(O)c3c2Oc2c(O)cc(Oc4c(O)cc(O)cc4O)cc2O3)c1` [7-phloroeckol], the “Mode of tyrosinase inhibition” value (tyrosinase [3]) is given as “non-competitive”.

With `Oc1cc(O)cc(Oc2c(O)cc(O)c3c2Oc2c(O)cc(O)c(-c4c(O)cc(O)c5c4Oc4c(O)cc(Oc6c(O)cc(O)cc6O)c(Oc6cc(O)cc(O)c6)c4O5)c2O3)c1` [Compound 5, 2-O-(2,4,6-trihydroxyphenyl)-6,6′-bieckol] the Binding mode (tyrosinase [1]) was “Competitive”, the Ki (tyrosinase [1]) was 5.8 µM and the inhibition at 100 µM (tyrosinase [1]; compound at 100 μM, triplicate) was 86.9 ± 0.9%. For the same compound, the IC50 (tyrosinase [1]; triplicate, read-out: IC50) was < 10 µM and 8.8 µM, the Ki (tyrosinase [2]) was 4.4 µM and the Slow-binding mechanism (tyrosinase [2]) was “a two-step binding mechanism”. It also gave a K5 (tyrosinase [2]; slow-binding mechanism B) of 0.0047 s⁻¹ and a K6 (tyrosinase [2]; slow-binding mechanism B) of 0.0003 s⁻¹.

For `Oc1cc(O)cc(Oc2c(O)cc(O)c3c2Oc2c(cc(O)c(-c4c(O)cc5c(c4O)Oc4c(Oc6cc(O)cc(O)c6)c(O)cc(O)c4O5)c2O)O3)c1` [Compound 7, 8,8′-bieckol], the inhibition at 100 µM (tyrosinase [1]) was 43.3 ± 1.5%.

For `Oc1cc(O)cc(O)c1` [phloroglucinol], the “Mode of tyrosinase inhibition” value (tyrosinase [3]) is given as “competitive”.

In the case of `Oc1cc(O)cc(Oc2c(O)cc(O)c3c2Oc2c(cc(O)c(-c4c(O)cc(O)c5c4Oc4c(O)cc(O)c(Oc6cc(O)cc(O)c6)c4O5)c2O)O3)c1` [Compound 6, 6,8′-bieckol], the inhibition at 100 µM (tyrosinase [1]; compound at 100 μM, triplicate) is reported as 41.2 ± 4.3%.

For `Oc1cc(O)cc(Oc2c(O)cc(O)c3c2Oc2c(O)cc4oc5c(Oc6cc(O)cc(O)c6)c(O)cc(O)c5c4c2O3)c1` [Compound 4, phlorofucofuroeckol A], the IC50 (tyrosinase [1]; IC50, triplicate) is listed as 66.4 ± 0.1 µM, the inhibition at 100 µM (tyrosinase [1]; compound at 100 μM, triplicate) is listed as 57.1 ± 3.3% and the “Mode of tyrosinase inhibition” value (tyrosinase [3]) is listed as “non-competitive”.

In the case of eckstolonol, the “Mode of tyrosinase inhibition” value (tyrosinase [3]) is listed as “competitive”.
